System: 2-vessel occlusion cerebral ischemia model
Assay: 2-vessel occlusion cerebral ischemia model, neurons in CA1 of hippocampus
Type: in vivo, mouse
Settings: 10 mg/kg in 10% tween 80, immediately after 2VO then once per day for 3 days
Protocol: 7-week old C57BL/6 based male mice (19-22 g) were obtained and nurtured in an animal laboratory at Kyunghee University Graduate School of East-West Medicine Science for one week or more for adaptation. Water and feed were freely supplied, and the temperature (22±2[…]), humidity (53±3%), and a cycle of brightness and darkness (12 hours) were automatically controlled.
Mice were divided into three groups, each of which consisted of 10 mice. Anesthesia was induced in an anesthetic gas (O2: 30%, N2O: 70%, and isoflurane: 2.0%) chamber, and mice of the respective groups were located on an operating table with their backs on the operating table. The skin of each mouse was cut upward by about 1.5 cm from a point where the upper limbs and an intermediate line meet, and then, facing common carotid arteries were exposed without damage of tissues. Tissues and nerves attached to the carotid arteries were dissociated and occlusion was performed thereon by using an aneurism clip for 25 minutes. In this regard, the temperature of the mice was measured by using a rectal thermometer and maintained at 37±0.5 □.
A sham control refers to a group obtained as described above except for the occlusion of the common carotid arteries. Medicine administration was performed immediately after a 2VO step, and thereafter, performed once per day for 3 days. […]

SMILES: CCCCC/C=C/C(=O)CCc1ccc(O)c(OC)c1 [shogaol, (E)-1-(4-hydroxy-3-methoxyphenyl)dec-4-en-3-one]
- neuron apoptosis suppression efficacy in CA1: 29.5±15.4 % of the 2VO step group

From patent US9844521B2, “Pharmaceutical composition comprising ginger extract or shogaol” (UNIVERSITY-INDUSTRY COOPERATION GROUP OF KYUNG HEE …, priority 2008, dated 2017)
